Source: ChEMBL document CHEMBL1138126, “Tyrosine kinase inhibitors. 19. 6-Alkynamides of 4-anilinoquinazolines and 4-anilinopyrido[3,4-d]pyrimidines as irreversible inhibitors of the erbB family of tyrosine kinase receptors” (J Med Chem, 2006)
Activity calls are given as the source filed them. The calls are words filed in the database; no cut-off is given here.

What was measured:
[1] = biological target: T1, Epidermal growth factor receptor (Homo sapiens, UniProt P00533); assay: Inhibition of erbB1 fusion protein expressed in baculovirus by ELISA
T1 sequence (P00533 whole entry, the tested form may be a part): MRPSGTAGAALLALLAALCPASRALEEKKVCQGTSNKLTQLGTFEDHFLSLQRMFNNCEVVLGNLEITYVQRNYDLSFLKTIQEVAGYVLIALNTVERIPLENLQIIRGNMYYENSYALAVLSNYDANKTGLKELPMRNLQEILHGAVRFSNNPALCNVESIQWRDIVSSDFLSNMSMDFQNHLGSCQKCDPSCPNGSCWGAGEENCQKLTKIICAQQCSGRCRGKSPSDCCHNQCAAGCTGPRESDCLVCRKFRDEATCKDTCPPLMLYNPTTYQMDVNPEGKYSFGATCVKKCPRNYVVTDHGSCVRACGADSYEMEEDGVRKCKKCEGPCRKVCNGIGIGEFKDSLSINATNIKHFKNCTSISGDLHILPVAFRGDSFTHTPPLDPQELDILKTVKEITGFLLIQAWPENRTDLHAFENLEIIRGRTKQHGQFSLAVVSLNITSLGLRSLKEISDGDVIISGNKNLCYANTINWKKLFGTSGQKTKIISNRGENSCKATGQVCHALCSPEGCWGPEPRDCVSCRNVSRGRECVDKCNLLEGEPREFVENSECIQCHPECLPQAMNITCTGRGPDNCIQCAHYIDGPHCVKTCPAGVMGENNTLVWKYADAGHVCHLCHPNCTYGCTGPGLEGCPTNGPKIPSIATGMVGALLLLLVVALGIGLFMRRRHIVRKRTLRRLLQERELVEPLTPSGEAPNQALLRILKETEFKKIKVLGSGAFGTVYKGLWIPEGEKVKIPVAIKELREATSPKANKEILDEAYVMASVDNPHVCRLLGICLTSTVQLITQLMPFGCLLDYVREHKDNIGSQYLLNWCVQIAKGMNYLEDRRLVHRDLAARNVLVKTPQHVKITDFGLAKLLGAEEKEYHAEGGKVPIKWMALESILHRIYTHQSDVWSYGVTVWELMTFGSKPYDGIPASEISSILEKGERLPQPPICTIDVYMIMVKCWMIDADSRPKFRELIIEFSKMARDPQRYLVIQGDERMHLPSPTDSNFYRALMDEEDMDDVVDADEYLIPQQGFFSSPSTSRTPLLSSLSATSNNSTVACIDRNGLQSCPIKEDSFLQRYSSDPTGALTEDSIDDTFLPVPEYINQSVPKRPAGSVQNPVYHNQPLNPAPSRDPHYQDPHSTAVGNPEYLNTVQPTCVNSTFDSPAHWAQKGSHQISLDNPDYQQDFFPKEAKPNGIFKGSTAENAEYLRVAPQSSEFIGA

[2] = biological target: T1, Epidermal growth factor receptor; assay: Inhibition of EGF stimulated human erbB1 autophosphorylation in NIH3T3 cells
[3] = biological target: T2, Receptor tyrosine-protein kinase erbB-2 (Homo sapiens, UniProt P04626)
T2 sequence (P04626 whole entry): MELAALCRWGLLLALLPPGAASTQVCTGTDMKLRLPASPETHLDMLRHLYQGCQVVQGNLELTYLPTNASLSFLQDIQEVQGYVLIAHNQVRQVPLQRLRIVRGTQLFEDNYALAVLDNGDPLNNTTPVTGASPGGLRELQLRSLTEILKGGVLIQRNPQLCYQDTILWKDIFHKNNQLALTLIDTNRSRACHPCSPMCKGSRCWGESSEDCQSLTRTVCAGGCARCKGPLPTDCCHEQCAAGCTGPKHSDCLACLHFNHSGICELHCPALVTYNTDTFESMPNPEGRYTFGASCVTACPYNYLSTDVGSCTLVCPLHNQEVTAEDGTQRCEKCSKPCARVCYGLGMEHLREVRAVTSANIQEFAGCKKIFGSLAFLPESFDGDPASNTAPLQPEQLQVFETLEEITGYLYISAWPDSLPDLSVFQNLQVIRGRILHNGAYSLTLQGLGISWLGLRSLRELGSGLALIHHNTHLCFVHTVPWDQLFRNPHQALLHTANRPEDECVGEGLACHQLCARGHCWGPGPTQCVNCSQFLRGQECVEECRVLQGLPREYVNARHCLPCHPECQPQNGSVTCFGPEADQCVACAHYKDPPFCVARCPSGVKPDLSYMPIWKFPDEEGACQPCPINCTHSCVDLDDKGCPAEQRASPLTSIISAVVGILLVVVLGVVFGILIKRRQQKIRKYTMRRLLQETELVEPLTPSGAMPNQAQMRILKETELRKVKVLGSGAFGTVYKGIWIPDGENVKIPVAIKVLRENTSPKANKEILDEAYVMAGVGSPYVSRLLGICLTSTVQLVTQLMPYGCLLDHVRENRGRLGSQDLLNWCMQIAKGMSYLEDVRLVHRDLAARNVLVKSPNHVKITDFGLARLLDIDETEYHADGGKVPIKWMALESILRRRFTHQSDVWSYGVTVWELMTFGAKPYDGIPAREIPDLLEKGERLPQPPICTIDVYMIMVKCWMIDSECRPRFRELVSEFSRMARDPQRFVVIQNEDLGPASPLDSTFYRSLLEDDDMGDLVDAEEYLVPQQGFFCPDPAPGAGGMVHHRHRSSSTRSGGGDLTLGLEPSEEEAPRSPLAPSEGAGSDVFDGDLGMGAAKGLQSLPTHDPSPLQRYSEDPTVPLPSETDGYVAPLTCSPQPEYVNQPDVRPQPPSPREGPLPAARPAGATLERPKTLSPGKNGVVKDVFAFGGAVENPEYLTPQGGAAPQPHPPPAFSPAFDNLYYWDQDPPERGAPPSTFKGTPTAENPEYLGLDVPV
Description: Inhibition of erbB2 fusion protein expressed in baculovirus by ELISA

[4] = biological target: Receptor tyrosine-protein kinase erbB-4 (Homo sapiens, UniProt Q15303)
Receptor tyrosine-protein kinase erbB-4, sequence (Q15303 whole entry): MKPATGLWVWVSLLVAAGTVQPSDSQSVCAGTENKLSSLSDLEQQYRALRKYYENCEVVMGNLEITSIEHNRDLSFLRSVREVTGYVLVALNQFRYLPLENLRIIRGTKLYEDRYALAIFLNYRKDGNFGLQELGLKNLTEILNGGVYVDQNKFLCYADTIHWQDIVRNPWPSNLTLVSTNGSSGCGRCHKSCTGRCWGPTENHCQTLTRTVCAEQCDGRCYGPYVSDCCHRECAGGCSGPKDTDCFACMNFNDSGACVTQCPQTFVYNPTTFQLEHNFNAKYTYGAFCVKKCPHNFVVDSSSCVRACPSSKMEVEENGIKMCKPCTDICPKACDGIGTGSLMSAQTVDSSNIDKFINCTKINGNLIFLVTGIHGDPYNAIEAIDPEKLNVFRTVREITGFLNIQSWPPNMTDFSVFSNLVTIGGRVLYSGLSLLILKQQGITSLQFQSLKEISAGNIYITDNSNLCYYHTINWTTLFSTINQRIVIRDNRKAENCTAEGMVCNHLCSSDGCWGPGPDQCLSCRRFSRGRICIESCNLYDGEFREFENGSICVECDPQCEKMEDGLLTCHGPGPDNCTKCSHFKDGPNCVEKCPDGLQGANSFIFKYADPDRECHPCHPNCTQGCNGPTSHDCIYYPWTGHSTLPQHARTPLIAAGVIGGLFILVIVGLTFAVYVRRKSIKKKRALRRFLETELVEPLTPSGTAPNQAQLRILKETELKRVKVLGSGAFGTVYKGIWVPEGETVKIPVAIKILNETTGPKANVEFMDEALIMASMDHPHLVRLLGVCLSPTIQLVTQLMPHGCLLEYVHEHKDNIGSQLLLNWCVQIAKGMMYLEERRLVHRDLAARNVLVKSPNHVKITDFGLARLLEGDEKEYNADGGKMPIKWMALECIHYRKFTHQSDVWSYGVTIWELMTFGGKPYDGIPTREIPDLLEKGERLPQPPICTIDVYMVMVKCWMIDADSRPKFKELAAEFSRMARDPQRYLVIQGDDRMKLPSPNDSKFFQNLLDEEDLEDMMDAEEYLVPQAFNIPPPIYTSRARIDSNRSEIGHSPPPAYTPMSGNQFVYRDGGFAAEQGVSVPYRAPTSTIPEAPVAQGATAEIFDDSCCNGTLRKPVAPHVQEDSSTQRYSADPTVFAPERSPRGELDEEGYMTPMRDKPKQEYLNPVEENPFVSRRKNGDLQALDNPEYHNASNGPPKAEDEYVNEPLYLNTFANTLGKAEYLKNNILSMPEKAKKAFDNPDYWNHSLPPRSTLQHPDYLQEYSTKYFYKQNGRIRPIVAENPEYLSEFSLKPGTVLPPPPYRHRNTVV
Description: Inhibition of erbB4 fusion protein expressed in baculovirus by ELISA

[5] = biological target: T2, Receptor tyrosine-protein kinase erbB-2; remark: listed apart in the source
Description: Inhibition of HER stimulated human erbB autophosphorylation in MDA-MB-453 cells

[6] = Volume of distribution in rat at 5 mg/kg, iv; type: ADME, organism-based; set-up: dose 5 mg/kg, route intravenous; conditions: in vivo, read-out: Vdss
[7] = Volume of distribution in dog at 5 mg/kg, iv; type: ADME, organism-based, Canis lupus familiaris; set-up: dose 5 mg/kg, route intravenous; conditions: in vivo, read-out: Vdss
[8] = Volume of distribution in monkey at 5 mg/kg, iv; type: ADME, organism-based, Macaca mulatta; set-up: dose 5 mg/kg, route intravenous; conditions: rhesus monkey, in vivo, read-out: Vdss
[9] = AUC(0-tz) in rat at 5 mg/kg, iv; type: ADME, organism-based; set-up: dose 5 mg/kg, route intravenous; conditions: plasma
[10] = AUC(0-tz) in dog at 5 mg/kg, iv; type: ADME, organism-based, Canis lupus familiaris; set-up: dose 5 mg/kg, route intravenous; conditions: plasma
Mus musculus [11] = assay: Antitumor activity in NCr nu/nu mice implanted with SKOV3 xenografts at 40 mg/kg, po; type: functional, organism-based; set-up: dose 40 mg/kg
Mus musculus [12] = assay: Antitumor activity in SCID mice implanted with SF 767 xenografts at 40 mg/kg, po; type: functional, organism-based; set-up: dose 40 mg/kg; conditions: CB17
Mus musculus [13] = assay: Antitumor activity in SCID mice implanted with BXPC3 xenografts at 40 mg/kg, po; type: functional, organism-based; set-up: dose 40 mg/kg; conditions: CB17
[14] = AUC(0-tz) in monkey at 5 mg/kg, iv; type: ADME, organism-based, Macaca mulatta; set-up: dose 5 mg/kg, route intravenous; conditions: rhesus monkey, plasma
[15] = AUC(0-tz) in rat at 15 mg/kg, po; type: ADME, organism-based; set-up: dose 15 mg/kg, route oral; conditions: plasma
[16] = AUC(0-tz) in dog at 15 mg/kg, po; type: ADME, organism-based, Canis lupus familiaris; set-up: dose 15 mg/kg, route oral; conditions: plasma
[17] = AUC(0-tz) in monkey at 30 mg/kg, po; type: ADME, organism-based, Macaca mulatta; set-up: dose 30 mg/kg, route oral; conditions: rhesus monkey, plasma
[18] = Oral bioavailability in rat at 15 mg/kg; type: ADME, organism-based; conditions: in vivo
[19] = Oral bioavailability in dog at 15 mg/kg; type: ADME, organism-based, Canis lupus familiaris; conditions: in vivo
[20] = Oral bioavailability in monkey at 30 mg/kg; type: ADME, organism-based, Macaca mulatta; conditions: rhesus monkey, in vivo
[21] = Cmax in rat at 15 mg/kg, po; type: ADME, organism-based; set-up: dose 15 mg/kg, route oral; conditions: in vivo
[22] = Cmax in dog at 15 mg/kg, po; type: ADME, organism-based, Canis lupus familiaris; set-up: dose 15 mg/kg, route oral; conditions: in vivo
[23] = Cmax in monkey at 30 mg/kg, po; type: ADME, organism-based, Macaca mulatta; set-up: dose 30 mg/kg, route oral; conditions: rhesus monkey, in vivo
[24] = Tmax in rat at 15 mg/kg, po; type: ADME, organism-based; set-up: dose 15 mg/kg, route oral; conditions: in vivo
[25] = Tmax in dog at 15 mg/kg, po; type: ADME, organism-based, Canis lupus familiaris; set-up: dose 15 mg/kg, route oral; conditions: in vivo
[26] = Tmax in monkey at 30 mg/kg, po; type: ADME, organism-based, Macaca mulatta; set-up: dose 30 mg/kg, route oral; conditions: rhesus monkey, in vivo
[27] = Half life in rat at 5 mg/kg, iv; type: ADME, organism-based; set-up: dose 5 mg/kg, route intravenous; conditions: in vivo
[28] = Half life in dog at 5 mg/kg, iv; type: ADME, organism-based, Canis lupus familiaris; set-up: dose 5 mg/kg, route intravenous; conditions: in vivo
[29] = Half life in monkey at 5 mg/kg, iv; type: ADME, organism-based, Macaca mulatta; set-up: dose 5 mg/kg, route intravenous; conditions: rhesus monkey, in vivo
[30] = Plasma clearance in rat at 5 mg/kg, iv; type: ADME, organism-based; set-up: dose 5 mg/kg, route intravenous
[31] = Plasma clearance in dog at 5 mg/kg, iv; type: ADME, organism-based, Canis lupus familiaris; set-up: dose 5 mg/kg, route intravenous
[32] = Plasma clearance in monkey at 5 mg/kg, iv; type: ADME, organism-based, Macaca mulatta; set-up: dose 5 mg/kg, route intravenous; conditions: rhesus monkey
[33] = biological target: Platelet-derived growth factor receptor (Homo sapiens, UniProt P09619+P16234); assay: Inhibition of PDGF receptor; type: protein-complex assay
[34] = biological target: Fibroblast growth factor receptor (Homo sapiens, UniProt P22607+P11362+P22455+P21802); assay: Inhibition of FGFR; type: protein assay
Insulin receptor = Insulin receptor (Homo sapiens, UniProt P06213); assay: Inhibition of insulin receptor
Insulin receptor, sequence (P06213 28-758 limits assumed): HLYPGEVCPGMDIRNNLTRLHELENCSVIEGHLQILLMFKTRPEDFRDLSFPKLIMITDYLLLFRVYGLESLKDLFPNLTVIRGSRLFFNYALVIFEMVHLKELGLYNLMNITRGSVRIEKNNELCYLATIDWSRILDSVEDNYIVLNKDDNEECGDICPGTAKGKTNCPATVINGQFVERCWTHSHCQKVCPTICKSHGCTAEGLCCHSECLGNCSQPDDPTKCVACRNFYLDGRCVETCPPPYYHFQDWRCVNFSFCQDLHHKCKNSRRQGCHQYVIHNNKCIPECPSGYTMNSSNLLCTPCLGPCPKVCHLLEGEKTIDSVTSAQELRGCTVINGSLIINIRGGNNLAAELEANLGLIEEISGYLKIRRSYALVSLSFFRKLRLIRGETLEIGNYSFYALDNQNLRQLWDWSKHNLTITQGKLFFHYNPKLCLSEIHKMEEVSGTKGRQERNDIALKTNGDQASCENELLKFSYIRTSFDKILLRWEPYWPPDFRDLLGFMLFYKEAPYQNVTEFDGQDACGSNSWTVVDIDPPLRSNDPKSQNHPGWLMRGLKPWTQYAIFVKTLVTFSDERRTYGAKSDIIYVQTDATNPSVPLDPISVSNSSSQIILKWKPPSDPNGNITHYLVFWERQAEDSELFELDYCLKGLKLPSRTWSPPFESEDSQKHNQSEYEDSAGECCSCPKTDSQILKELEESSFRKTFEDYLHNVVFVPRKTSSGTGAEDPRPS
Insulin receptor, sequence (P06213 763-1382 limits assumed): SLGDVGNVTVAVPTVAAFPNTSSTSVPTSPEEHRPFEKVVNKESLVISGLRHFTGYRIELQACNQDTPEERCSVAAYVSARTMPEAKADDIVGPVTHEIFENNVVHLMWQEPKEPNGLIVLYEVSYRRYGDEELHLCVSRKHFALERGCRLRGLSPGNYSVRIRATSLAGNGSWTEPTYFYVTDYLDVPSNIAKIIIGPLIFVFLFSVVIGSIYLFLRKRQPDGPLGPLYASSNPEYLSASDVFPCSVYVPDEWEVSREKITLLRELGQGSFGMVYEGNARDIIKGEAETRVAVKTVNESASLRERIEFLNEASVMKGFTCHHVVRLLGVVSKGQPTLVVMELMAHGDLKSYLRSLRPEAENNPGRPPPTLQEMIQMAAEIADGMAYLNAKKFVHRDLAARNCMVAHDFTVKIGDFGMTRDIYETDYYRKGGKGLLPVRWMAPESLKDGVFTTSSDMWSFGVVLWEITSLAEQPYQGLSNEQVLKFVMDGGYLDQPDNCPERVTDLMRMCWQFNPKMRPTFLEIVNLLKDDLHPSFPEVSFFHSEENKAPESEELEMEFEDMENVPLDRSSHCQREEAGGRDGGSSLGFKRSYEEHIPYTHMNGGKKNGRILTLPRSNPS

Mus musculus [35] = assay: Antitumor activity in NCr nu/nu mice implanted with A431 xenografts at 10 mg/kg, po; type: functional, organism-based; set-up: dose 10 mg/kg
Mus musculus [36] = assay: Antitumor activity in NCr nu/nu mice implanted with H125 NSC xenografts at 40 mg/kg, po; type: functional, organism-based; set-up: dose 40 mg/kg
[37] = biological target: T2, Receptor tyrosine-protein kinase erbB-2; remark: listed apart in the source
Description: Inhibition of ligand stimulated erbB2 autophosphorylation in T24 NIH cells

CCCCN(CC#CC(=O)Nc1ccc2ncnc(Nc3ccc(F)c(Cl)c3)c2c1)CCCC
IC50 [1]: 40 nM
IC50 [2]: 11 nM
IC50 [3]: 464 nM
IC50 [4]: 624 nM
IC50 [5]: 32 nM

O=C(C#CCN1CCOCC1)Nc1ccc2ncnc(Nc3ccc(F)c(Cl)c3)c2c1
IC50 [1]: 86 nM
IC50 [2]: 31 nM
IC50 [3]: 300 nM
IC50 [4]: 229 nM
IC50 [5]: 173 nM

O=C(C#CCCN1CCOCC1)Nc1cc2c(Nc3ccc(F)c(Cl)c3)ncnc2cn1
IC50 [1]: 1.3 nM
IC50 [2]: 1.8 nM
IC50 [3]: 0.8 nM
IC50 [4]: 1 nM
IC50 [5]: 5 nM

CC(C)N(CC#CC(=O)Nc1cc2c(Nc3ccc(F)c(Cl)c3)ncnc2cn1)C(C)C
IC50 [1]: 44 nM
IC50 [2]: 73 nM
IC50 [3]: > 1000 nM
IC50 [4]: 538 nM
IC50 [5]: 36 nM

CCN(CC)CC#CC(=O)Nc1cc2c(Nc3ccc(F)c(Cl)c3)ncnc2cn1
IC50 [1]: 15 nM
IC50 [2]: 48 nM
IC50 [3]: 597 nM
IC50 [4]: 644 nM
IC50 [5]: 116 nM

CCCCC#CC(=O)Nc1cc2c(Nc3ccc(F)c(Cl)c3)ncnc2cn1
IC50 [1]: 15 nM
IC50 [2]: 4.5 nM
IC50 [3]: 5.4 nM
IC50 [4]: 7.1 nM
IC50 [5]: 20 nM

O=C(C#CCCN1CCOCC1)Nc1cc2c(Nc3ccc(F)c(Br)c3)ncnc2cn1
IC50 [1]: 1.5 nM
IC50 [2]: 4.5 nM
IC50 [3]: 0.7 nM
IC50 [4]: 1 nM
IC50 [5]: 0.5 nM

O=C(C#CCO)Nc1ccc2ncnc(Nc3ccc(F)c(Cl)c3)c2c1
IC50 [1]: 1.4 nM
IC50 [2]: 25 nM
IC50 [3]: 2.1 nM
IC50 [4]: 7.3 nM
IC50 [5]: 43 nM

CCN(CC)CC#CC(=O)Nc1ccc2ncnc(Nc3ccc(F)c(Cl)c3)c2c1
IC50 [1]: 3.1 nM
IC50 [2]: 6.8 nM
IC50 [3]: 46 nM
IC50 [4]: 310 nM
IC50 [5]: 7.5 nM

O=C(C#CCN1CCOCC1)Nc1cc2c(Nc3ccc(F)c(Cl)c3)ncnc2cn1
IC50 [1]: 3.1 nM
IC50 [2]: 14 nM
IC50 [3]: 26 nM
IC50 [4]: 6.2 nM
IC50 [5]: 22 nM

CCCC#CC(=O)Nc1cc2c(Nc3ccc(F)c(Cl)c3)ncnc2cn1
IC50 [1]: 1.7 nM
IC50 [2]: 9.6 nM
IC50 [3]: 3.8 nM
IC50 [4]: 2.4 nM
IC50 [5]: 170 nM

O=C(C#CCCN1CCCCC1)Nc1cc2c(Nc3ccc(F)c(Cl)c3)ncnc2cn1
IC50 [1]: 0.9 nM
IC50 [2]: 4.3 nM
IC50 [3]: 2.1 nM
IC50 [4]: 1.8 nM
IC50 [5]: 2 nM

CC(C)N(CC#CC(=O)Nc1ccc2ncnc(Nc3ccc(F)c(Cl)c3)c2c1)C(C)C
IC50 [3]: 2.8 nM
IC50 [5]: 65 nM

O=C(C#CCCN1CCOCC1)Nc1ccc2ncnc(Nc3ccc(F)c(Cl)c3)c2c1
IC50 [1]: 1.7 nM
IC50 [2]: 12 nM
IC50 [3]: 2.3 nM
IC50 [4]: 4.3 nM
IC50 [5]: 7.6 nM

CN1CCN(CCC#CC(=O)Nc2cc3c(Nc4ccc(F)c(Cl)c4)ncnc3cn2)CC1
Vd [6]: 3.1 L/kg
Vd [7]: 0.93 L/kg
Vd [8]: 1.7 L/kg
AUC [9]: 703 ng·h/mL
AUC [10]: 7470 ng·h/mL
Activity (Mus musculus [11]): Active
Activity (Mus musculus [12]): Active
Activity (Mus musculus [13]): Active
AUC [14]: 1190 ng·h/mL
AUC [15]: 240 ng·h/mL
AUC [16]: 15200 ng·h/mL
AUC [17]: 485 ng·h/mL
bioavailability [18]: 11.4%
bioavailability [19]: 67.8%
bioavailability [20]: 6.75%
Cmax [21]: 56.3 ng/mL
Cmax [22]: 4180 ng/mL
Cmax [23]: 83.5 ng/mL
Tmax [24]: 4.7 h
Tmax [25]: 1 h
Tmax [26]: 3.5 h
half-life [27]: 0.83 h
half-life [28]: 1.86 h
half-life [29]: 0.37 h
clearance [30]: 119 mL/min/kg
clearance [31]: 11.5 mL/min/kg
clearance [32]: 85.8 mL/min/kg
IC50 [33]: > 50000 nM
IC50 [34]: > 50000 nM
IC50 (Insulin receptor): > 50000 nM
Activity (Mus musculus [35]): Active
Activity (Mus musculus [36]): Active
IC50 [3]: 0.7 nM
IC50 [4]: 1.2 nM
IC50 [5]: 1 nM
IC50 [37]: 0.8 nM

CN1CCN(CCC#CC(=O)Nc2cc3c(Nc4ccc(F)c(Br)c4)ncnc3cn2)CC1
IC50 [1]: 1.1 nM
IC50 [2]: 2.7 nM
IC50 [3]: 0.5 nM
IC50 [4]: 0.8 nM
IC50 [5]: 3.5 nM

C#CC(=O)Nc1ccc2ncnc(Nc3cccc(Br)c3)c2c1
IC50 [3]: 1.9 nM
IC50 [4]: 1.7 nM

CC#CC(=O)Nc1cc2c(Nc3ccc(F)c(Cl)c3)ncnc2cn1
IC50 [3]: 1.1 nM
IC50 [4]: 0.5 nM
IC50 [5]: 24 nM

C#CC(=O)Nc1cc2c(Nc3cccc(Br)c3)ncnc2cn1
IC50 [1]: 0.6 nM
IC50 [2]: 15 nM
IC50 [3]: 2.4 nM
IC50 [4]: 13 nM

CCN(CC)CCC#CC(=O)Nc1ccc2ncnc(Nc3ccc(F)c(Cl)c3)c2c1
IC50 [1]: 1.8 nM
IC50 [2]: 4.5 nM
IC50 [3]: 2.6 nM
IC50 [4]: 16 nM
IC50 [5]: 23 nM

CCCCN(CC#CC(=O)Nc1cc2c(Nc3ccc(F)c(Cl)c3)ncnc2cn1)CCCC
IC50 [1]: 17 nM
IC50 [2]: 49 nM
IC50 [3]: 67 nM
IC50 [4]: 73 nM
IC50 [5]: 320 nM

CC#CC(=O)Nc1ccc2ncnc(Nc3cccc(Br)c3)c2c1
IC50 [3]: 17 nM
IC50 [4]: 12 nM
